Consider 8 compounds from patent US9346815B2, “5-chloro-2-difluoromethoxyphenyl pyrazolopyrimidine compounds, compositions and methods of use thereof” (Genentech, Inc., priority 2014, dated 2016).

For data set [1], the target named is isolated recombinant JAK1 kinase domain (Homo sapiens (Human), UniProt P23458). As to the kind of experiment: JAK1 enzyme assay (Caliper LabChip, peptide phosphorylation). The conditions noted are these: isolated recombinant JAK1 kinase domain, 25 μM ATP. The data set is classed as biochemical.
Data set [2] has as its target isolated recombinant JAK2 kinase domain (Homo sapiens (Human), UniProt O60674). Description: JAK2 enzyme assay (Caliper LabChip, peptide phosphorylation). The data set is classed as biochemical. The note with it: 25 μM ATP.
Data set [3] relates to JAK1-dependent STAT6 phosphorylation downstream of IL-13 stimulation in TF-1 human erythroleukemia cells. As to the kind of experiment: JAK1 pathway assay in TF-1 cells (IL-13-pSTAT6, MSD). The data set is classed as cell-based. The note with it: Homo sapiens, TF-1, TF-1 cells, read-out: IL13-pSTAT6 EC50_TF-1. In short, it runs like this:
(§1)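 BEAS-2B: complete growth medium, compound 1 hr at 37° C. TF-1: GM-CSF-starved overnight, serum-free OptiMEM, compound 30 min.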

Data set [4] has as its system JAK1-dependent STAT6 phosphorylation downstream of IL-13 stimulation in BEAS-2B human bronchial epithelial cells. As to the kind of experiment: JAK1 pathway assay in BEAS-2B cells (IL-13-pSTAT6, MSD). The conditions noted are these: read-out: IL13-pSTAT6 EC50 (uM)_BEAS-2B. Type of data set: cell-based. An outline of the steps: as §1
Data set [5] is described as follows: Clearance assay: mouse intravenous (IV) clearance. The conditions noted are these: female BALB/c mice; for IV Mouse CL, % of liver blood flow: single IV dose of 1 mg/kg, clearance as % of mouse liver blood flow; for clearance: mouse, plasma, single IV dose of 1 mg/kg via the tail vein, read-out: IV Mouse CL. Type of data set: in vivo. The text has this:
In certain instances high systemic clearance of a drug substance may be of benefit. For example, in the treatment of pulmonary diseases it may be beneficial to have high drug concentrations in the lung, with lower concentrations in the bloodstream or peripheral organs. In such cases, it may be advantageous to administer a drug substance with high systemic clearance via the inhaled delivery route. This approach may maximize pharmacologic activity of the drug substance in the lung while minimizing the possibility of on-target toxicity elsewhere in the body. The functional groups appended to the 5-chloro-2-difluoromethoxyphenyl pyrazolopyrimidine scaffold affect systemic clearance.
Female BALB/c mice were obtained from Charles River Labs (Hollister, Calif. USA). Twelve animals were given a single IV dose of 1 mg/kg of compounds via the tail vein. A representative dose solution was prepared as follows: the compound was dissolved in a mixture of 5% dimethylsulfoxide (DMSO), 35% polyethylene glycol (PEG 400), and 60% water (v/v/v), respectively, and administered at a dosing volume of 5 mL/kg. Mice weighed approximately 20-25 g at the start of the study. After intravenous administration of compounds, each animal was bled twice via retro-orbital and cardiac puncture. PK time points were collected at 2 min, 5 min, 15 min, 30 min, 1 hr, 2 hr, 4 hr, and 8 hr post-dose. Plasma samples were stored at approximately −80° C. until thawed for LC-MS/MS analysis. PK data analysis was performed on mean plasma concentration-time data and PK parameters were determined by non compartmental methods using WinNonlin® Enterprise, version 5.2.1 (Pharsight Corporation; Mountain View, Calif.).

Sequence of isolated recombinant JAK2 kinase domain (O60674 849-1124): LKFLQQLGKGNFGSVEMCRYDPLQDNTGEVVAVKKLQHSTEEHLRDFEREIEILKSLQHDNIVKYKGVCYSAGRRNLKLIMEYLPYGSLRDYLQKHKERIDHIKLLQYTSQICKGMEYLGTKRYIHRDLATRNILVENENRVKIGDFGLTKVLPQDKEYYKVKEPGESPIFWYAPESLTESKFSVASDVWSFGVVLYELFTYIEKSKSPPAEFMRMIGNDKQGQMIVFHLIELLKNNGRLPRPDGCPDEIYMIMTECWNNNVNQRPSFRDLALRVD
Sequence of isolated recombinant JAK1 kinase domain (P23458 875-1153): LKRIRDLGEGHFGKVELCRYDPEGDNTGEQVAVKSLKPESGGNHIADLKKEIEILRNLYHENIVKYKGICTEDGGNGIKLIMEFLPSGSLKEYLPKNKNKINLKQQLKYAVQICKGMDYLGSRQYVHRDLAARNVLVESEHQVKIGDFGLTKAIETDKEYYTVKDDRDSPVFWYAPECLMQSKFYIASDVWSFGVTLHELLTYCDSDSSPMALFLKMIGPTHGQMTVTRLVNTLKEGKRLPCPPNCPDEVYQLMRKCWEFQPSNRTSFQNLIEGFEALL

Regarding `CN(CC(F)(F)F)C1CCN(C(=O)Cn2cc(NC(=O)c3cnn4cccnc34)c(-c3cc(Cl)ccc3OC(F)F)n2)CC1` [Example 99, N-[3-[5-chloro-2-(difluoromethoxy)phenyl]-1-[2-[4-[methyl(2,2,2-trifluoroethyl)amino]-1-piperidyl]-2-oxo-ethyl]pyrazol-4-yl]pyrazolo[1,5-a]pyrimidine-3-carboxamide], the figures for the Ki in data set [1] and in data set [2] were 0.4 nM and 0.76 nM, respectively. The EC50 in data set [3] worked out at 1.7 nM; in data set [4], 0.0305 µM. Moreover, the “IV Mouse CL, % of liver blood flow” value in data set [5] was more than 100%. Also, the clearance in data set [5] is 14 L/h/kg.
Turning to `CN(CC(F)(F)c1ccccc1)C1CCN(C(=O)Cn2cc(NC(=O)c3cnn4cccnc34)c(-c3cc(Cl)ccc3OC(F)F)n2)CC1` [Example 102, N-[3-[5-chloro-2-(difluoromethoxy)phenyl]-1-[2-[4-[(2,2-difluoro-2-phenyl-ethyl)-methyl-amino]-1-piperidyl]-2-oxo-ethyl]pyrazol-4-yl]pyrazolo[1,5-a]pyrimidine-3-carboxamide], the values for the Ki in data set [1] and in data set [2] were 0.62 nM and 1.1 nM, respectively. Further, the EC50 in data set [3] worked out at 8.5 nM; in data set [4] it was 0.0347 µM. Besides, the “IV Mouse CL, % of liver blood flow” value in data set [5] was more than 100%. In data set [5], the clearance worked out at 8.4 L/h/kg.
For `CN(CC(C)(F)F)C1CCN(C(=O)Cn2cc(NC(=O)c3cnn4cccnc34)c(-c3cc(Cl)ccc3OC(F)F)n2)CC1` [Example 134, N-[3-[5-chloro-2-(difluoromethoxy)phenyl]-1-[2-[4-[2,2-difluoropropyl(methyl)amino]-1-piperidyl]-2-oxo-ethyl]pyrazol-4-yl]pyrazolo[1,5-a]pyrimidine-3-carboxamide], the Ki in data set [1] worked out at 0.33 nM; in data set [2] it was 0.69 nM. Also, the EC50 was 2.3 nM in data set [3] and 0.0118 µM in data set [4]. Also, the “IV Mouse CL, % of liver blood flow” value in data set [5] is given as more than 100%. The clearance in data set [5] turned out to be 13.3 L/h/kg.
As for `CN1CCN(c2nc(-c3cc(Cl)ccc3OC(F)F)c(NC(=O)c3cnn4cccnc34)s2)CC1` [Example 205, Pyrazolo[1,5-a]pyrimidine-3-carboxylic acid [4-(5-chloro-2-difluoromethoxy-phenyl)-2-(4-methyl-piperazin-1-yl)-thiazol-5-yl]-amide], the Ki was 0.8 nM in data set [1] and 0.58 nM in data set [2]. The EC50 was 4.4 nM in data set [3] and 0.0338 µM in data set [4]. Further, the “IV Mouse CL, % of liver blood flow” value in data set [5] is on record as 51%. Also, the clearance in data set [5] stood at 2.76 L/h/kg.
With `CN(C)CC#Cc1nc(-c2cc(Cl)ccc2OC(F)F)c(NC(=O)c2cnn3cccnc23)s1` [Example 209, Pyrazolo[1,5-a]pyrimidine-3-carboxylic acid [4-(5-chloro-2-difluoromethoxy-phenyl)-2-(3-dimethylamino-prop-1-ynyl)-thiazol-5-yl]-amide], the Ki is 0.78 nM in data set [1] and 0.28 nM in data set [2]. Also, the EC50 in data set [3] is 7.4 nM; in data set [4], 0.0415 µM. Besides, the “IV Mouse CL, % of liver blood flow” value in data set [5] is 71%. Further, the clearance in data set [5] is 3.84 L/h/kg.
As for `CCN1CCN(C(=O)Cn2cc(NC(=O)c3cnn4cccnc34)c(-c3cc(Cl)ccc3OC(F)F)n2)CC1` [Example 233, Pyrazolo[1,5-a]pyrimidine-3-carboxylic acid {3-(5-chloro-2-difluoromethoxy-phenyl)-1-[2-(4-ethyl-piperazin-1-yl)-2-oxo-ethyl]-1H-pyrazol-4-yl}-amide], the Ki amounted to 0.78 nM in data set [1] and 1.43 nM in data set [2]. The EC50 in data set [3] is 10 nM; in data set [4], 0.0181 µM. For the same compound, the “IV Mouse CL, % of liver blood flow” value in data set [5] is reported as more than 100%. Moreover, the clearance in data set [5] was 9.18 L/h/kg.
Regarding `O=C(Nc1cn(CC(=O)N2CC=CCC2)nc1-c1cc(Cl)ccc1OC(F)F)c1cnn2cccnc12` [Example 284, N-[3-[5-chloro-2-(difluoromethoxy)phenyl]-1-[2-(3,6-dihydro-2H-pyridin-1-yl)-2-oxo-ethyl]pyrazol-4-yl]pyrazolo[1,5-a]pyrimidine-3-carboxamide], the Ki in data set [1] was determined as 0.15 nM; in data set [2], 0.37 nM. Moreover, the EC50 in data set [3] was 1.6 nM; in data set [4], 0.0125 µM. The “IV Mouse CL, % of liver blood flow” value in data set [5] is on record as more than 100%. Moreover, the clearance in data set [5] was 13.1 L/h/kg.
With `COCCNCCn1cc(NC(=O)c2cnn3cccnc23)c(-c2cc(Cl)ccc2OC(F)F)n1` [Example 294, N-[3-[5-chloro-2-(difluoromethoxy)phenyl]-1-[2-(2-methoxyethylamino)ethyl]pyrazol-4-yl]pyrazolo[1,5-a]pyrimidine-3-carboxamide], the Ki was determined as 0.89 nM in data set [1] and 0.57 nM in data set [2]. Moreover, the EC50 in data set [3] was determined as 6.2 nM; in data set [4], 0.0367 µM. The “IV Mouse CL, % of liver blood flow” value in data set [5] is on record as more than 100%. The clearance in data set [5] amounted to 5.7 L/h/kg.
